Biological target: T1, mTOR (Homo sapiens, UniProt P42345)
T1 construct: FLAG; made in house
Assay: In Vitro mTOR Kinase Assay (Echo), Test (a)(ii)
Format: biochemical
Settings: table of enzyme assay Test (a)(ii); read-out: Test (a)(ii) IC50
Procedure, shortened: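 AlphaScreen read-out: biotinylated substrate phosphorylation was detected with anti-p70 S6K (T389) 1A5 antibody, Protein A acceptor and streptavidin donor beads after overnight dark incubation at room temperature. Enzyme was FLAG-mTOR 1362-2549 from stable HEK293 cells.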

T1 sequence (P42345 1362-2549): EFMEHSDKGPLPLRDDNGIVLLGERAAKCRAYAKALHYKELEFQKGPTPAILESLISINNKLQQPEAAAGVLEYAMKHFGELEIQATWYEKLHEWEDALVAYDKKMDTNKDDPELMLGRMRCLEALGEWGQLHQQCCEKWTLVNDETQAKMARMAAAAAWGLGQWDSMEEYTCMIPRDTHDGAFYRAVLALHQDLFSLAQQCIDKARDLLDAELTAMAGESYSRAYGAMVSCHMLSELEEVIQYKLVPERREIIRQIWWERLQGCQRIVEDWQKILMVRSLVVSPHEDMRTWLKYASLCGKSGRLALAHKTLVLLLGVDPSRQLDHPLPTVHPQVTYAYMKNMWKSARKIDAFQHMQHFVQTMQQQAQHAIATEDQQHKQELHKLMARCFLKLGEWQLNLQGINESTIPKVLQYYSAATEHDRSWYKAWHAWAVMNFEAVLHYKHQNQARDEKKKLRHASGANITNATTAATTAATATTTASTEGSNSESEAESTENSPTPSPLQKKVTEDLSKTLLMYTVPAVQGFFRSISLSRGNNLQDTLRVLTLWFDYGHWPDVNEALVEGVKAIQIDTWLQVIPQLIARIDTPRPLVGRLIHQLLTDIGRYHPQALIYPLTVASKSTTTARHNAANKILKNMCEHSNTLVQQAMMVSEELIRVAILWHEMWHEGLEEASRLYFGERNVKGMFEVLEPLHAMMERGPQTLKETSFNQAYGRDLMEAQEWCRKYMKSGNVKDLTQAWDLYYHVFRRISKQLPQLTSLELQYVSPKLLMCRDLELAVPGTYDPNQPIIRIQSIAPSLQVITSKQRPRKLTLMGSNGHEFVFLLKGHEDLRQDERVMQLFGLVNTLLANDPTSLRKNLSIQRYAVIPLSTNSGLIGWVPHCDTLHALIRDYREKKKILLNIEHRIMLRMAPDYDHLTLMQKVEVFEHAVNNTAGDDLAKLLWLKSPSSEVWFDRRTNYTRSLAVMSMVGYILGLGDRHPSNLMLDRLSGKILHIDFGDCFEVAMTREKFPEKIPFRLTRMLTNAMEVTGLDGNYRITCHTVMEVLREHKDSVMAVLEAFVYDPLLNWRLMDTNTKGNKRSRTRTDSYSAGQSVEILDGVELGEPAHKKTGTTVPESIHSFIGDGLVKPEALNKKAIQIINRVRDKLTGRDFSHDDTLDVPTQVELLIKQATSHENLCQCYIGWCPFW

SMILES	IC50 [nM]
C[C@H]1COCCN1c1cc(C2(S(=O)(=O)c3cc(F)cc(F)c3)CC2)nc(-c2ccc(NC(=O)Nc3cnn(C)c3)cc2)n1 [Example 19m, 1-[4-[4-[1-(3,5-difluorophenyl)sulfonylcyclopro-pyl]-6-[(3S)-3-methylmorpholin-4-yl]pyrimidin-2-yl]phenyl]-3-(1-methylpyrazol-4-yl)urea]	0.944
C[C@H]1COCCN1c1cc(C2(S(C)(=O)=O)CCNCC2)nc(-c2ccc(NC(=O)NC3CC3)cc2)n1 [Example 20, 3-Cyclopropyl-1-[4-[4-[(3S)-3-methylmorpholin-4-yl]-6-(4-methylsulfonylpiperidin-4-yl)pyrimidin-2-yl]phenyl]urea]	12.8
C[C@H]1COCCN1c1cc(C2(S(=O)(=O)C3CC3)CCNCC2)nc(-c2ccc(NC(=O)NC3CC3)cc2)n1 [Example 21, 3-Cyclopropyl-1-[4-[4-(4-cyclopropylsulfonylpiperidin-4-yl)-6-[(3S)-3-methylmorpholin-4-yl]pyrimidin-2-yl]phenyl]urea]	25.3
C[C@H]1COCCN1c1cc(C2(S(=O)(=O)C3CC3)CCNCC2)nc(-c2ccc(NC(=O)Nc3cnn(C)c3)cc2)n1 [Example 21c, 1-[4-[4-(4-cyclopropylsulfonylpiperidin-4-yl)-6-[(3S)-3-methylmorpholin-4-yl]pyrimidin-2-yl]phenyl]-3-(1-methylpyrazol-4-yl)urea]	23.4
C[C@H]1COCCN1c1cc(C2(S(=O)(=O)c3cc(F)cc(F)c3)CCN(Cc3ccccc3)CC2)nc(-c2ccc(NC(=O)NC3CC3)cc2)n1 [Example 22, 1-[4-[4-[1-Benzyl-4-(3,5-difluorophenyl)sulfonylpiperidin-4-yl]-6-[(3S)-3-methylmorpholin-4-yl]pyrimidin-2-yl]phenyl]-3-cyclopropylurea]	503
C[C@H]1COCCN1c1cc(C2(S(C)(=O)=O)CCOCC2)nc(-c2ccc(NC(=O)NCCN(C)C)cc2)n1 [Example 23b, 3-(2-dimethylaminoethyl)-1-[4-[4-[(3S)-3-methylmorpholin-4-yl]-6-(4-methylsulfonyloxan-4-yl)pyrimidin-2-yl]phenyl]urea]	197
C[C@H]1COCCN1c1cc(C2(S(C)(=O)=O)CCOCC2)nc(-c2ccc(NC(=O)NCCO)cc2)n1 [Example 23c, 3-(2-hydroxyethyl)-1-[4-[4-[(3S)-3-methylmorpholin-4-yl]-6-(4-methylsulfonyloxan-4-yl)pyrimidin-2-yl]phenyl]urea]	0.831
CNC(=O)Nc1ccc(-c2nc(N3CCOC[C@@H]3C)cc(C3(S(=O)(=O)C4CC4)CCOCC3)n2)cc1 [Example 23f, 1-[4-[4-(4-cyclopropylsulfonyloxan-4-yl)-6-[(3S)-3-methylmorpholin-4-yl]pyrimidin-2-yl]phenyl]-3-methylurea]	19.9
C[C@H]1COCCN1c1cc(C2(S(=O)(=O)c3ccc(Cl)cc3)CCOCC2)nc(-c2ccc(NC(=O)NCCN(C)C)cc2)n1 [Example 23k, 1-[4-[4-[4-(4-chlorophenyl)sulfonyloxan-4-yl]-6-[(3S)-3-methylmorpholin-4-yl]pyrimidin-2-yl]phenyl]-3-(2-dimethylaminoethyl)urea]	1140
C[C@H]1COCCN1c1cc(C2(S(=O)(=O)c3ccc(Cl)cc3)CCOCC2)nc(-c2ccc(NC(=O)NCCO)cc2)n1 [Example 23l, 1-[4-[4-[4-(4-chlorophenyl)sulfonyloxan-4-yl]-6-[(3S)-3-methylmorpholin-4-yl]pyrimidin-2-yl]phenyl]-3-(2-hydroxyethyl)urea]	8.88
Cc1csc(S(=O)(=O)C2(c3cc(N4CCOC[C@@H]4C)nc(-c4ccc(NC(=O)NC5CC5)cc4)n3)CC2)n1 [Example 25, 3-Cyclopropyl-1-[4-[4-[(3S)-3-methylmorpholin-4-yl]-6-[1-[(4-methyl-1,3-thiazol-2-yl)sulfonyl]cyclopropyl]pyrimidin-2-yl]phenyl]urea]	1.55
Cc1csc(S(=O)(=O)C2(c3cc(N4CCOC[C@@H]4C)nc(-c4ccc(NC(=O)NC5CCC5)cc4)n3)CC2)n1 [Example 25a, 3-cyclobutyl-1-[4-[4-[(3S)-3-methylmorpholin-4-yl]-6-[1-[(4-methyl-1,3-thiazol-2-yl)sulfonyl]cyclopropyl]pyrimidin-2-yl]phenyl]urea]	2.24
Cc1csc(S(=O)(=O)C2(c3cc(N4CCOC[C@@H]4C)nc(-c4ccc(NC(=O)Nc5ccccn5)cc4)n3)CC2)n1 [Example 25b, 1-[4-[4-[(3S)-3-methylmoprholin-4-yl]-6-[1-[(4-methyl-1,3-thiazol-2-yl)sulfonyl]cyclopropyl]pyrimidin-2-yl]phenyl]-3-pyridin-2-ylurea]	0.817

Continued by falling IC50, values first:

IC50 [nM]	SMILES
1210	C[C@H]1COCCN1c1cc(C2(S(=O)(=O)C3CC3)CCOCC2)nc(-c2ccc(NC(=O)NCCN(C)C)cc2)n1 [Example 23g, 1-[4-[4-(4-cyclopropylsulfonyloxan-4-yl)-6-[(3S)-3-methylmorpholin-4-yl]pyrimidin-2-yl]phenyl]-3-(2-dimethylaminoethyl)urea]
874	C[C@H]1COCCN1c1cc(C2(S(C)(=O)=O)CCNCC2)nc(-c2ccc(NC(=O)NCCN(C)C)cc2)n1 [Example 20b, 3-(2-dimethylaminoethyl)-1-[4-[4-[(3S)-3-methylmorpholin-4-yl]-6-(4-methylsulfonylpiperidin-4-yl)pyrimidin-2-yl]phenyl]urea]
57.7	C[C@H]1COCCN1c1cc(C2(S(=O)(=O)c3ccc(Cl)cc3)CCOCC2)nc(-c2ccc(NC(=O)Nc3cnn(C)c3)cc2)n1 [Example 23m, 1-[4-[4-[4-(4-chlorophenyl)sulfonyloxan-4-yl]-6-[(3S)-3-methylmorpholin-4-yl]pyrimidin-2-yl]phenyl]-3-(1-methylpyrazol-4-yl)urea]
37.8	CNC(=O)Nc1ccc(-c2nc(N3CCOC[C@@H]3C)cc(C3(S(=O)(=O)C4CC4)CCNCC3)n2)cc1 [Example 21a, 1-[4-[4-(4-cyclopropylsulfonylpiperidin-4-yl)-6-[(3S)-3-methylmorpholin-4-yl]pyrimidin-2-yl]phenyl]-3-methylurea]
31.4	CNC(=O)Nc1ccc(-c2nc(N3CCOC[C@@H]3C)cc(C3(S(=O)(=O)c4ccc(Cl)cc4)CCOCC3)n2)cc1 [Example 23j, 1-[4-[4-[4-(4-chlorophenyl)sulfonyloxan-4-yl]-6-[(3S)-3-methylmorpholin-4-yl]pyrimidin-2-yl]phenyl]-3-methylurea]
25.4	C[C@H]1COCCN1c1cc(C2(S(=O)(=O)C3CC3)CCOCC2)nc(-c2ccc(NC(=O)Nc3cnn(C)c3)cc2)n1 [Example 23i, 1-[4-[4-(4-cyclopropylsulfonyloxan-4-yl)-6-[(3S)-3-methylmorpholin-4-yl]pyrimidin-2-yl]phenyl]-3-(1-methylpyrazol-4-yl)urea]
16.3	CNC(=O)Nc1ccc(-c2nc(N3CCOC[C@@H]3C)cc(C3(S(C)(=O)=O)CCNCC3)n2)cc1 [Example 20a, 3-methyl-1-[4-[4-[(3S)-3-methylmorpholin-4-yl]-6-(4-methylsulfonylpiperidin-4-yl)pyrimidin-2-yl]phenyl]urea]
13.3	C[C@H]1COCCN1c1cc(C2(S(C)(=O)=O)CCNCC2)nc(-c2ccc(NC(=O)Nc3cnn(C)c3)cc2)n1 [Example 20d, 1-[4-[4-[(3S)-3-methylmorpholin-4-yl]-6-(4-methylsulfonylpiperidin-4-yl)pyrimidin-2-yl]phenyl]-3-(1-methylpyrazol-4-yl)urea]
13.3	C[C@H]1COCCN1c1cc(C2(S(=O)(=O)C3CC3)CCNCC2)nc(-c2ccc(NC(=O)NCCO)cc2)n1 [Example 21b, 1-[4-[4-(4-cyclopropylsulfonylpiperidin-4-yl)-6-[(3S)-3-methylmorpholin-4-yl]pyrimidin-2-yl]phenyl]-3-(2-hydroxyethyl)urea]
8.76	C[C@H]1COCCN1c1cc(C2(S(=O)(=O)C3CC3)CCOCC2)nc(-c2ccc(NC(=O)NC3CC3)cc2)n1 [Example 23e, 3-cyclopropyl-1-[4-[4-(4-cyclopropylsulfonyloxan-4-yl)-6-[(3S)-3-methylmorpholin-4-yl]pyrimidin-2-yl]phenyl]urea]
8.08	C[C@H]1COCCN1c1cc(C2(S(=O)(=O)C3CC3)CCOCC2)nc(-c2ccc(NC(=O)NCCO)cc2)n1 [Example 23h, 1-[4-[4-(4-cyclopropylsulfonyloxan-4-yl)-6-[(3S)-3-methylmorpholin-4-yl]pyrimidin-2-yl]phenyl]-3-(2-hydroxyethyl)urea]
5.59	C[C@H]1COCCN1c1cc(C2(S(C)(=O)=O)CCNCC2)nc(-c2ccc(NC(=O)NCCO)cc2)n1 [Example 20c, 3-(2-hydroxyethyl)-1-[4-[4-[(3S)-3-methylmorpholin-4-yl]-6-(4-methylsulfonylpiperidin-4-yl)pyrimidin-2-yl]phenyl]urea]
5.34	C[C@H]1COCCN1c1cc(C2(S(C)(=O)=O)CCOCC2)nc(-c2ccc(NC(=O)Nc3cnn(C)c3)cc2)n1 [Example 23d, 1-[4-[4-[(3S)-3-methylmorpholin-4-yl]-6-(4-methylsulfonyloxan-4-yl)pyrimidin-2-yl]phenyl]-3-(1-methylpyrazol-4-yl)urea]
5.17	C[C@H]1COCCN1c1cc(C2(S(=O)(=O)c3ccc(Cl)cc3)CCOCC2)nc(-c2ccc(NC(=O)NC3CC3)cc2)n1 [Example 24, 1-[4-[4-[4-(4-Chlorophenyl)sulfonyloxan-4-yl]-6-[(3S)-3-methylmorpholin-4-yl]pyrimidin-2-yl]phenyl]-3-cyclopropylurea]
4.59	CNC(=O)Nc1ccc(-c2nc(N3CCOC[C@@H]3C)cc(C3(S(C)(=O)=O)CCOCC3)n2)cc1 [Example 23a, 3-methyl-1-[4-[4-[(3S)-3-methylmorpholin-4-yl]-6-(4-methylsulfonyloxan-4-yl)pyrimidin-2-yl]phenyl]urea]
1.52	C[C@H]1COCCN1c1cc(C2(S(=O)(=O)c3cc(F)cc(F)c3)CC2)nc(-c2ccc(NC(=O)NCCCO)cc2)n1 [Example 19l, 1-[4-[4-[1-(3,5-difluorophenyl)sulfonylcyclopro-pyl]-6-[(3S)-3-methylmorpholin-4-yl]pyrimidin-2-yl]phenyl]-3-(3-hydroxypropyl)urea]

Source: US20090018134A1, “Compounds - 945” (AstraZeneca AB, priority 2007, published 2009)
